# In PubChem BioAssay AID1963979 (Molecular Pharmacology Branch, DTP, NCI, 2024):
# Test system: 361931-004-R-J1-PDC multicell spheroid viability
# Test: Anticancer human tumor 361931-004-R-J1-PDC patient-derived colon adenocarcinoma cell line growth inhibition [PI3K]
# Details: for IC50: curve of first compound; for viability, T/C: stronger effect = lower value
# Method in brief: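 Spheroid viability read-out. Co-cultures contained the tumor line plus HUVEC and human MSCs. Each agent was paired with a PI3K inhibitor (inavolisib, alpelisib, duvelisib, copanlisib) across half-log dilutions starting at clinical Cmax, or at 10 microM when Cmax was unknown.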
# [1] = second compound 0.0316 µM, first compound 0.0316 µM
# [2] = second compound 0.0316 µM, first compound 0.1 µM
# [3] = second compound 0.0316 µM, first compound 0.316 µM
# [4] = second compound 0.0316 µM, first compound 1 µM
# [5] = second compound 0.0316 µM, first compound 3.16 µM
# [6] = second compound 0.0316 µM, first compound 10 µM
# [7] = second compound 0.1 µM, first compound 0.0316 µM
# [8] = second compound 0.1 µM, first compound 0.1 µM
# [9] = second compound 0.1 µM, first compound 0.316 µM
# [10] = second compound 0.1 µM, first compound 1 µM
# [11] = second compound 0.1 µM, first compound 3.16 µM
# [12] = second compound 0.1 µM, first compound 10 µM
# [13] = second compound 0.316 µM, first compound 0.0316 µM
# [14] = second compound 0.316 µM, first compound 0.1 µM
# [15] = second compound 0.316 µM, first compound 0.316 µM
# [16] = second compound 0.316 µM, first compound 1 µM
# [17] = second compound 0.316 µM, first compound 3.16 µM
# [18] = second compound 0.316 µM, first compound 10 µM
# [19] = second compound 1 µM, first compound 0.0316 µM
# [20] = second compound 1 µM, first compound 0.1 µM
# [21] = second compound 1 µM, first compound 0.316 µM
# [22] = second compound 1 µM, first compound 1 µM
# [23] = second compound 1 µM, first compound 3.16 µM
# [24] = second compound 1 µM, first compound 10 µM
# [25] = second compound 3.16 µM, first compound 0.0316 µM
# [26] = second compound 3.16 µM, first compound 0.1 µM
# [27] = second compound 3.16 µM, first compound 0.316 µM
# [28] = second compound 3.16 µM, first compound 1 µM
# [29] = second compound 3.16 µM, first compound 3.16 µM
# [30] = second compound 3.16 µM, first compound 10 µM
# [31] = second compound 10 µM, first compound 0.0316 µM
# [32] = second compound 10 µM, first compound 0.1 µM
# [33] = second compound 10 µM, first compound 0.316 µM
# [34] = second compound 10 µM, first compound 1 µM
# [35] = second compound 10 µM, first compound 3.16 µM
# [36] = second compound 10 µM, first compound 10 µM
# 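Further: spheroids exposed to agents for seven days before readout.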
smiles,measurement,setting,value
C=CC(=O)N1CCN(c2nc(=O)n(-c3c(C)ccnc3C(C)C)c3nc(-c4c(O)cccc4F)c(F)cc23)C(C)C1 (stereo not given) + Cc1nc(NC(=O)N2CCCC2C(N)=O)sc1-c1ccnc(C(C)(C)C(F)(F)F)c1,IC50,second compound 0.0316 µM,> 10000 nM
same,IC50,second compound 0.1 µM,> 10000 nM
same,IC50,second compound 0.316 µM,> 10000 nM
same,IC50,second compound 1 µM,> 10000 nM
same,IC50,second compound 3.16 µM,> 10000 nM
same,IC50,second compound 10 µM,> 10000 nM
same,"viability, T/C",[1],91%
same,"viability, T/C",[2],102%
same,"viability, T/C",[3],87.7%
same,"viability, T/C",[4],96.5%
same,"viability, T/C",[5],93.3%
same,"viability, T/C",[6],73.9%
same,"viability, T/C",[7],91.8%
same,"viability, T/C",[8],96.8%
same,"viability, T/C",[9],98.6%
same,"viability, T/C",[10],99%
same,"viability, T/C",[11],97.4%
same,"viability, T/C",[12],61.7%
same,"viability, T/C",[13],96.6%
same,"viability, T/C",[14],96.7%
same,"viability, T/C",[15],99.5%
same,"viability, T/C",[16],85.2%
same,"viability, T/C",[17],96.3%
same,"viability, T/C",[18],73.5%
same,"viability, T/C",[19],90.2%
same,"viability, T/C",[20],83.4%
same,"viability, T/C",[21],80.5%
same,"viability, T/C",[22],73.6%
same,"viability, T/C",[23],80.8%
same,"viability, T/C",[24],63%
same,"viability, T/C",[25],74.9%
same,"viability, T/C",[26],85.6%
same,"viability, T/C",[27],67%
same,"viability, T/C",[28],69.9%
same,"viability, T/C",[29],72.8%
same,"viability, T/C",[30],55.5%
same,"viability, T/C",[31],58.4%
same,"viability, T/C",[32],61.2%
same,"viability, T/C",[33],56.9%
same,"viability, T/C",[34],68.3%
same,"viability, T/C",[35],57.8%
same,"viability, T/C",[36],40%
Cn1ncc(Cl)c1-c1cc(C(=O)NC(CN)Cc2cccc(F)c2)sc1Cl (stereo not given),"viability, T/C",compound 0.0316 µM,94.2% [middle of 4 runs]
same,"viability, T/C",compound 0.1 µM,97.2% [middle of 4 runs]
same,"viability, T/C",compound 3.16 µM,46.3% [middle of 4 runs]
same,"viability, T/C",compound 10 µM,29.7% [middle of 4 runs]
CC(C)NCC(C(=O)N1CCN(c2ncnc3c2C(C)CC3O)CC1)c1ccc(Cl)cc1 (stereo not given) + Cc1nc(NC(=O)N2CCCC2C(N)=O)sc1-c1ccnc(C(C)(C)C(F)(F)F)c1,IC50,second compound 0.0316 µM,1380 nM
same,IC50,second compound 0.1 µM,1520 nM
same,IC50,second compound 0.316 µM,1090 nM
same,IC50,second compound 1 µM,1080 nM
same,IC50,second compound 3.16 µM,1020 nM
same,IC50,second compound 10 µM,631 nM
same,"viability, T/C",[1],96.2%
same,"viability, T/C",[2],102%
same,"viability, T/C",[3],85.4%
same,"viability, T/C",[4],56.2%
same,"viability, T/C",[5],34.5%
same,"viability, T/C",[6],27%
same,"viability, T/C",[7],97%
same,"viability, T/C",[8],87.4%
same,"viability, T/C",[9],94.3%
same,"viability, T/C",[10],60.2%
same,"viability, T/C",[11],30.7%
same,"viability, T/C",[12],17.6%
same,"viability, T/C",[13],96.8%
same,"viability, T/C",[14],93.9%
same,"viability, T/C",[15],68.5%
same,"viability, T/C",[16],51.5%
same,"viability, T/C",[17],34.2%
same,"viability, T/C",[18],18.1%
same,"viability, T/C",[19],87.9%
same,"viability, T/C",[20],96.7%
same,"viability, T/C",[21],76.8%
same,"viability, T/C",[22],50.6%
same,"viability, T/C",[23],29.6%
same,"viability, T/C",[24],16.7%
same,"viability, T/C",[25],72.3%
same,"viability, T/C",[26],84%
same,"viability, T/C",[27],73.9%
same,"viability, T/C",[28],46.6%
same,"viability, T/C",[29],29.7%
same,"viability, T/C",[30],13.4%
same,"viability, T/C",[31],62.1%
same,"viability, T/C",[32],56.8%
same,"viability, T/C",[33],63.4%
same,"viability, T/C",[34],42.4%
same,"viability, T/C",[35],21.6%
same,"viability, T/C",[36],11.9%
C#Cc1c(F)ccc2cc(O)cc(-c3ncc4c(N5CC6CCC(C5)N6)nc(OCC56CCCN5CC(F)C6)nc4c3F)c12 (stereo not given) + CC(Nc1ccc2c(c1)OCCn1cc(N3C(=O)OCC3C(F)F)nc1-2)C(N)=O,IC50,second compound 0.00316 µM,> 10000 nM
same,IC50,second compound 0.01 µM,> 10000 nM
same,IC50,second compound 0.0316 µM,> 10000 nM
same,IC50,second compound 0.1 µM,> 10000 nM
same,IC50,second compound 0.316 µM,> 10000 nM
same,IC50,second compound 1 µM,1760 nM
same,"viability, T/C","second compound 0.00316 µM, first compound 0.0316 µM",99.7%
same,"viability, T/C","second compound 0.00316 µM, first compound 0.1 µM",108%
same,"viability, T/C","second compound 0.00316 µM, first compound 0.316 µM",93.5%
same,"viability, T/C","second compound 0.00316 µM, first compound 1 µM",100%
same,"viability, T/C","second compound 0.00316 µM, first compound 3.16 µM",89.6%
same,"viability, T/C","second compound 0.00316 µM, first compound 10 µM",62.3%
same,"viability, T/C","second compound 0.01 µM, first compound 0.0316 µM",101%
same,"viability, T/C","second compound 0.01 µM, first compound 0.1 µM",104%
same,"viability, T/C","second compound 0.01 µM, first compound 0.316 µM",81%
same,"viability, T/C","second compound 0.01 µM, first compound 1 µM",92.1%
same,"viability, T/C","second compound 0.01 µM, first compound 3.16 µM",75.3%
same,"viability, T/C","second compound 0.01 µM, first compound 10 µM",71.3%
same,"viability, T/C",[1],101%
same,"viability, T/C",[2],100%
same,"viability, T/C",[3],106%
same,"viability, T/C",[4],81.3%
same,"viability, T/C",[5],84.3%
same,"viability, T/C",[6],55.9%
same,"viability, T/C",[7],93.8%
same,"viability, T/C",[8],94.2%
same,"viability, T/C",[9],76%
same,"viability, T/C",[10],75%
same,"viability, T/C",[11],68.5%
same,"viability, T/C",[12],53.4%
same,"viability, T/C",[13],86.6%
same,"viability, T/C",[14],86%
same,"viability, T/C",[15],68.2%
same,"viability, T/C",[16],55.2%
same,"viability, T/C",[17],57.1%
same,"viability, T/C",[18],50%
same,"viability, T/C",[19],78.7%
same,"viability, T/C",[20],71.2%
same,"viability, T/C",[21],64.6%
same,"viability, T/C",[22],53.4%
same,"viability, T/C",[23],46.2%
same,"viability, T/C",[24],35.1%
